# Data from patent US20030215465A1, “Use of conjugated acid derivatives” (priority 2002, published 2003).
# Test system: influenza virus
# Test: resistance inducing effect of CLA against viral airway infections in rats exposed intranasally to influenza virus
# Assay type: in vivo
# Details: rats fed 1% CLA (FFA) for 5 weeks before intranasal influenza exposure; FIG. 1
substance,measurement,value
Conjugated Linoleic Acid [CLA],lungweight,increased
